Drawing on PubChem BioAssay (NCI), this text covers TGI and GI50 for 9 compounds.

Among the test systems are NCI-H460 lung; MDA-MB-435; SR leukemia; K-562 leukemia; UACC-257 melanoma; A549 NSCLC; OVCAR-4 ovarian; 786-0 renal; M14 melanoma; HOP-92 NSCLC.
What all share (test): NCI tumour cell line growth inhibition, 48 h

The structures appear in SMILES notation.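 In this assay, cells in 96-well plates receive the compound at five concentrations for 48 hours. Endpoints are linearly interpolated between the surrounding concentrations. Here, GI50 denotes the concentration required for 50% inhibition of growth. TGI: concentration producing complete growth inhibition.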

For `CC1(CCC(=O)OC2CCCCC2)OCCO1`, the TGI in the test on NCI-H460 lung, in the test with MDA-MB-435, in the test with SR leukemia, in the test on K-562 leukemia, with UACC-257 melanoma and in the test with A549 NSCLC was > 100 µM throughout. The TGI with OVCAR-4 ovarian, with 786-0 renal, in the test with M14 melanoma and in the test with HOP-92 NSCLC was > 100 µM each time.
Regarding `CCN(CC)CCCNC(=O)c1c2c(n3ccccc13)C(=O)c1ncccc1C2=O`, the GI50 in the test on NCI-H460 lung was 0.225 µM; with MDA-MB-435, 0.224 µM; in the test on SR leukemia, 0.485 µM; in the test on K-562 leukemia, 0.916 µM; in the test with UACC-257 melanoma, 0.491 µM; in the test on A549 NSCLC it was 1.17 µM. The GI50 in the test on OVCAR-4 ovarian was 0.164 µM; in the test with 786-0 renal, 0.904 µM; with M14 melanoma it was 0.764 µM; in the test with HOP-92 NSCLC, 2.22 µM. Also, the TGI in the test with NCI-H460 lung is 1.75 µM; in the test on MDA-MB-435 it was 0.506 µM; in the test on SR leukemia, > 100 µM; in the test with K-562 leukemia, > 100 µM; in the test on UACC-257 melanoma, 1.71 µM; in the test on A549 NSCLC it was 2.84 µM. Also, the TGI with OVCAR-4 ovarian stood at 0.903 µM; with 786-0 renal, 7.9 µM; with M14 melanoma, 2.25 µM; in the test on HOP-92 NSCLC, 4.87 µM.
For `O=C(OCc1ncc(-c2ccc(C(F)(F)F)cc2)c(NC2CCCCCC2)n1)c1c(F)c(F)c(F)c(F)c1F`, the GI50 was 17.3 µM with NCI-H460 lung; 15.8 µM in the test on MDA-MB-435; 3.13 µM in the test on SR leukemia; 4.86 µM in the test with K-562 leukemia; 17.5 µM with UACC-257 melanoma; 18.2 µM in the test on A549 NSCLC. Also, the GI50 with OVCAR-4 ovarian is 15.5 µM; with 786-0 renal it was 11.4 µM; in the test with M14 melanoma it was 17.3 µM. The TGI in the test with NCI-H460 lung was determined as 40.1 µM; in the test on MDA-MB-435 it was 32.6 µM; with SR leukemia, 12.4 µM; in the test with K-562 leukemia, 30.2 µM; with UACC-257 melanoma it was 35 µM; with A549 NSCLC, 51.4 µM. The TGI in the test on OVCAR-4 ovarian was found to be 30.6 µM; with 786-0 renal, 27.2 µM; in the test with M14 melanoma it was 39.6 µM.
As to `O=Cc1cccc2c1Oc1c(cccc1C(=O)O)S2`, the TGI with NCI-H460 lung, in the test with MDA-MB-435, in the test with SR leukemia, in the test with UACC-257 melanoma, in the test with A549 NSCLC and in the test with OVCAR-4 ovarian was > 100 µM each time. For the same compound, the TGI in the test with 786-0 renal, with M14 melanoma and in the test on HOP-92 NSCLC was > 100 µM in each case.
As for `C=C(Nc1ccc([N+](=O)[O-])cc1[N+](=O)[O-])c1c/c(=N\NC(N)=S)c2ccccc2o1`, the TGI with NCI-H460 lung is > 100 µM; with MDA-MB-435 it was > 100 µM; in the test with SR leukemia it was 68.7 µM; in the test on UACC-257 melanoma, > 100 µM; in the test on A549 NSCLC, > 100 µM; with OVCAR-4 ovarian, > 100 µM. Moreover, the TGI in the test on 786-0 renal, in the test on M14 melanoma and in the test with HOP-92 NSCLC was > 100 µM throughout.
Consider `CCC(CNc1cc(OC)cc2cccnc12)NC1CCCCC1` (centres undefined), for which the GI50 is 16.8 µM in the test with NCI-H460 lung; 32.6 µM with MDA-MB-435; 24.5 µM in the test with SR leukemia; 7.68 µM in the test with K-562 leukemia; 41.1 µM in the test on UACC-257 melanoma; 63.3 µM with A549 NSCLC. Moreover, the values for the GI50 in the test with OVCAR-4 ovarian, in the test with 786-0 renal and with M14 melanoma were 6.2 µM, 24 µM and 17.1 µM, respectively. In addition, the TGI is 41 µM with NCI-H460 lung; > 100 µM in the test with MDA-MB-435; 96.1 µM in the test with SR leukemia; 53.8 µM in the test with K-562 leukemia; > 100 µM in the test with UACC-257 melanoma; > 100 µM in the test with A549 NSCLC. Also, the TGI in the test on OVCAR-4 ovarian was > 100 µM; with 786-0 renal, 69.4 µM; in the test with M14 melanoma it was 33.5 µM.
Take `NC(=O)c1cccc(Nc2nccc(Nc3cccc4[nH]ncc34)n2)c1`: the GI50 is 9.05 µM with NCI-H460 lung; 8.58 µM in the test on MDA-MB-435; 8.72 µM with SR leukemia; 4.53 µM in the test with K-562 leukemia; > 19.2 µM in the test with UACC-257 melanoma; > 24 µM in the test on A549 NSCLC. For the same compound, the GI50 in the test on OVCAR-4 ovarian was 13.2 µM; in the test with 786-0 renal it was 10.8 µM; with M14 melanoma it was 9.59 µM; in the test with HOP-92 NSCLC, 3 µM. The TGI in the test with NCI-H460 lung, in the test with MDA-MB-435, in the test with SR leukemia, in the test on K-562 leukemia, in the test on UACC-257 melanoma and with A549 NSCLC was > 25 µM in each case. Further, the TGI is > 25 µM in the test on OVCAR-4 ovarian, > 25 µM in the test on 786-0 renal, > 25 µM in the test on M14 melanoma and 12.2 µM in the test on HOP-92 NSCLC.
Regarding `COc1ccc(OC)c2c1[nH]c(=O)c1c3ncccc3cn21`, the GI50 is 1.61 µM in the test on NCI-H460 lung; 3.85 µM in the test with MDA-MB-435; 3.43 µM in the test with SR leukemia; 3.62 µM with K-562 leukemia; 5.05 µM in the test on UACC-257 melanoma; 2.83 µM in the test on A549 NSCLC. Further, the GI50 with OVCAR-4 ovarian was 3.56 µM; in the test with 786-0 renal, 5.44 µM; with M14 melanoma, 4.49 µM; in the test on HOP-92 NSCLC, 0.854 µM. Also, the TGI in the test with NCI-H460 lung was 3.39 µM; in the test with MDA-MB-435 it was > 100 µM; in the test on SR leukemia it was > 100 µM; in the test with K-562 leukemia it was > 100 µM; with UACC-257 melanoma, > 100 µM; in the test on A549 NSCLC it was 15.3 µM. Moreover, the TGI is 17.2 µM in the test on OVCAR-4 ovarian, > 100 µM in the test with 786-0 renal, > 100 µM in the test with M14 melanoma and 6.26 µM with HOP-92 NSCLC.
Consider `COc1ccccc1CNCCCN1C(=O)c2ccc3c4c(ccc(c24)C1=O)C(=O)N(CCCCNCCCN)C3=O`, for which the GI50 in the test on NCI-H460 lung is 0.825 µM; in the test on MDA-MB-435 it was 0.574 µM; in the test with SR leukemia, 0.362 µM; in the test on K-562 leukemia it was 1.9 µM; in the test on UACC-257 melanoma, 0.698 µM; in the test on A549 NSCLC it was 1.58 µM. In addition, the GI50 in the test with OVCAR-4 ovarian is 0.458 µM; with 786-0 renal, 2.25 µM; in the test on M14 melanoma it was 1.89 µM; with HOP-92 NSCLC, 2.01 µM. The TGI with NCI-H460 lung was 2.82 µM; with MDA-MB-435, 1.16 µM; in the test with SR leukemia, > 23.6 µM; in the test with K-562 leukemia it was 4.87 µM; in the test on UACC-257 melanoma, 2.08 µM; in the test with A549 NSCLC it was 3.5 µM. In addition, the TGI with OVCAR-4 ovarian was found to be 1.24 µM; with 786-0 renal, 9.35 µM; with M14 melanoma it was 3.5 µM; with HOP-92 NSCLC, 7.04 µM.
